Results reported in patent US9399790B2, “Stable NAD/NADH derivatives” (Roche Diabetes Care, Inc., priority 2006, dated 2016).

Assays:
[1] = biological target: T1, glucose dehydrogenase (GlucDH) (Bacillus subtilis, UniProt P12310); assay: Glucose dehydrogenase (GlucDH) activity assay with NAD derivative as cofactor; assay type: biochemical; details: for U/ml: GlucDH 0.002 mg/ml (NAD)
Method: In order to examine the role of pNAD as a cofactor for glucose dehydrogenase (GlucDH), a glucoseDH activity assay in 0.1 M Tris/0.2 M NaCl (pH 8.5) buffer was carried out. The concentration of glucose was 80 mM. pNAD and NAD concentrations of 0.05-0.5 mM were used. To this, 10 mg/ml (pNAD) or 0.002 mg/ml (NAD) [83 or 0.017 μM respectively] GlucDH was added. The assay was carried out at room temperature and the enzymatic reaction was monitored by recording absorption spectra at regular time intervals. The values shown in table 1 refer to an absorption measurement after 4 min.
A glucose dehydrogenase activity assay for cNAD compared to NAD was carried out as described under B) for pNAD. For this purpose glucose dehydrogenase concentrations of […] and 0.002 mg/ml (NAD) [0.83 and 0.017 μM respectively] were used.

[2] = biological target: T1, glucose dehydrogenase (GlucDH); assay: as above; assay type: biochemical; details: 0.05 mM (p)NAD; 80 mM glucose; 0.1 M Tris/0.2 M NaCl pH 8.5; room temperature; absorption after 4 min; GlucDH 0.02 mg/ml (NAD), 10 mg/ml (pNAD)
[3] = Investigation of the stability of pNAD (incubation at 50° C., HPLC); assay type: physicochemical; details: 0.15 M KPO4, 1 M NaCl buffer (pH 7.0)
Method: In order to examine the stability of pNAD compared to NAD, the same amounts of NAD and pNAD were each taken up in 0.15 M KPO4, 1 M NaCl buffer (pH 7.0) and incubated at 50° C. The decomposition of NAD and/or pNAD were monitored by HPLC.

[4] = Examination of the stability of carbaNAD (stressing in solution, HPLC); assay type: physicochemical; details: 10 mM solution, pH 8, 0.1 M potassium phosphate buffer, 8° C. and 37° C., after 0.25, 75 and 175 h
Method: A 10 mM solution of carbNAD and/or NAD is stressed at pH 8 in 0.1 M potassium phosphate buffer. The content is determined by means of HPLC chromatography after 0.25, 75 and 175 h.
Buffer A: 100 mM KHPO4+10 mM tetrabutylammonium hydrogen sulfate, pH 6.9 buffer B: buffer A+acetonitrile 1:1 flow rate 1.0 ml/min detection: 254 nm […]
gradient: in 40 min to 35% buffer B, hold for 2 min and then change to 0% buffer A within 3 min.

[5] = 0.05 mM (p)NAD, relative to NAD = 100, 80 mM glucose, pH 8.5, after 4 min
[6] = 0.4 mM (p)NAD, relative to NAD = 100, 80 mM glucose, pH 8.5, after 4 min
[7] = 0.05 mM (c)NAD, relative to NAD = 100
[8] = 0.1 mM (c)NAD, relative to NAD = 100

T1 sequence (P12310 whole entry): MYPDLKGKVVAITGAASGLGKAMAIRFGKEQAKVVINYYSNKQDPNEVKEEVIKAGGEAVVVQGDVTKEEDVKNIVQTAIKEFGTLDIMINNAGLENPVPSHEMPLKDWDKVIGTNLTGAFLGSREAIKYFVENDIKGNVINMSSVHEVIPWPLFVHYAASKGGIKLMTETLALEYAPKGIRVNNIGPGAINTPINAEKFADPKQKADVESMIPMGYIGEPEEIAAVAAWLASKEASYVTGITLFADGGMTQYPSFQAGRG

Structure (SMILES) | activity at 50 µM [1, 5] [%] | U/ml ([1]; 0.4 mM (p)NAD, 80 mM glucose, 0.1 M Tris/0.2 M NaCl pH 8.5, room temperature, absorption after 4 min, 10 mg/ml (pNAD)) [U/ml] | activity at 400 µM [1, 6] [%] | U/ml [2] [U/ml] | stability (percentage areas of (p)NAD compared to time zero, HPLC) [3] | activity at 50 µM [1, 7] [%] | activity at 100 µM [1, 8] [%] | stability (occurrence of decomposition products, HPLC area percentages) [4] | U/ml ([1]; 0.05 mM (c)NAD, assay as for pNAD, 0.1 mg/ml (cNAD)) [U/ml] | % activity [1, 7] [%] | U/ml ([1]; 0.1 mM (c)NAD, assay as for pNAD, 0.1 mg/ml (cNAD)) [U/ml] | % activity [1, 8] [%]
NC(=O)c1ccc[n+]([C@@H]2CN[C@H](COP(=O)([O-])OP(=O)(O)OC[C@H]3O[C@@H](n4cnc5c(N)ncnc54)[C@H](O)[C@@H]3O)C2)c1 [pNAD, Pyrrolidinyl-NAD] | 3e-05 | 0.0024 | 0.00015 | 0.00017 | very stable compared to NAD |  |  |  |  |  |  | 
NC(=O)c1ccc[n+]([C@@H]2O[C@H](COP(=O)([O-])OP(=O)(O)OC[C@H]3O[C@@H](n4cnc5c(N)ncnc54)[C@H](O)[C@@H]3O)[C@@H](O)[C@H]2O)c1 [NAD, nicotinamide adenine dinucleotide, reference compound] | 100 |  | 100 |  |  | 100 | 100 |  |  |  |  | 
NC(=O)c1ccc[n+]([C@@H]2C[C@H](COP(=O)([O-])OP(=O)(O)OC[C@H]3O[C@@H](n4cnc5c(N)ncnc54)[C@H](O)[C@@H]3O)[C@@H](O)[C@H]2O)c1 [cNAD, carbaNAD] |  |  |  |  |  |  |  | very stable compared to NAD | 2.7 | 0.63 | 5.3 | 0.95
